The results in this text go back to patent publication US20150182525A1, “4-Amino-5-Fluoro-3-[6-(4-Methylpiperazin-1-YL)-1H-Benzimidazol-2-YL]-1H-Quinolin-2-one for use in the Treatment of Adenoid Cystic Carcinoma” (priority 2011, published 2015).

SMILES strings stand for the structures. “Also recorded” adds a separate entry of the source.

For assay [1], the system named is ACCx6 xenograft tumor line. The assay can be described thus: ACCx6 adenoid cystic carcinoma xenograft efficacy study in nude mice. The assay is classed as in vivo. The settings on record: 50 mg/kg p.o. qd x28; D28; P<0.001 as compared to 5/10 mg/kg docetaxel monotherapy.
Procedure: The tumors are maintained by engraftment in nude mice. A 1 mm^3 fragment is implanted subcutaneously in the right flank of each test animal The tumors are measured with calipers twice weekly, and daily as the mean volume approached 100-150 mm^3 Seven days after tumor cell implantation, on D1 (day 1) of the study, the animals are sorted into groups of ten mice, with individual tumor sizes of 100-1250 mm^3 Tumor size, in mm^3, is calculated from
where “w” is the width and “1” is the length, in mm, of the tumor. Tumor weight is estimated with the assumption that 1 mg is equivalent to 1 mm^3 of tumor volume. For the efficacy study dovitinib and its vehicle are each administered orally (p.o.), once daily for twenty eight consecutive days (qd x28). […] The dosing volume, 10 mL/kg (0.2 mL20 g mouse), is scaled to the weight of each animal as determined on the day of dosing, except on weekends when the previous BW was carried forward.
The study begins on Day 1 (D1). Efficacy is determined from tumor volume changes up to D28 (day 28). Efficacy is determined on D28.
For the purpose of statistical and graphical analyses, ΔTV, the difference in tumor volume between D1 (the start of dosing) and the endpoint day, was determined for each animal For each treatment group, the response on the endpoint day was calculated by the following relation: […]
For assay [2], the system named is ACCx5M1 xenograft tumor line. Briefly: ACCx5M1 adenoid cystic carcinoma xenograft tumor growth delay study in nude mice. It is filed as in vivo. The text has this: The data set is comprised of the first observation that exceeded the study endpoint volume and the three consecutive observations that immediately preceded the attainment of the endpoint volume. The calculated TTE is usually less than the day on which an animal is euthanized for tumor size.

The test system of assay [3] is Stage IV adenoid cystic carcinoma. The assay can be described thus: Dovitinib clinical trial, adenoid cystic carcinoma patient, radiologic imaging of target lesions. It is filed as in vivo, human. How it is done:
A patient with Stage IV adenoid cystic carcinoma was enrolled in a dovitinib clinical trial.
The patient was originally diagnosed 20 years ago with Stage II well differentiated ACC on the right cheek mucosa. Patient was previously treated using tumor resection of right cheek mucosa and right upper jaw and treated with radiation therapy, followed by chemotherapy with 5 FU (250 mg/m^2), ciplatin (40 mg/m^2), doxorubicin (20 or 27 mg/m^2) and cyclophosphamide (400 mg/m^2).
Recurrence of ACC occurred […], and patient was again treated using surgery of right cheek and submandibular Lymph nodes. Patient was subsequently treated with radiation therapy and followed by chemotherapy (TS-1, 120 mg/day).
Patient was enrolled into the dovitinib clinical trial and was treated with dovitinb 500 mg 5 days on 2 days off.

The test system of assay [4] is primary ACC xenografts. Briefly: Tumor growth inhibition in primary ACC xenograft models. It is filed as in vivo, immunodeficient mice. The settings on record: FIGS. 6 and 7. How it is done: Once confirmed, established ACC xenograft models were developed until growth characteristic stabilized at which point viable stocks were collected and banked. According to one embodiment, the efficacy of dovitinib was evaluated in inhibiting tumor growth in certain ACC xenografts.

[5] abbreviates: 500 mg 5 days on 2 days off, after 1 cycle of treatment (4 weeks), one patient.

Take `CN1CCN(c2ccc3nc(-c4c(N)c5c(F)cccc5[nH]c4=O)[nH]c3c2)CC1` [dovitinib, 4-amino-5-fluoro-3-[6-(4-methylpiperazin-1-yl)-1H-benzimidazol-2-yl]-1H-quinolin-2-one]: the “median growth inhibition (tumor volume)” value in assay [1] is “significant median growth inhibition”. Moreover, in assay [2] (50 mg/kg monotherapy, Logrank test, P<0.05), the survival extension entry is recorded as “significant”. Besides, the “% TGD (tumor growth delay)” value in assay [2] (50 mg/kg p.o. qd x64 monotherapy, study endpoint D64 or endpoint tumor volume) was 49%. Further, in assay [3] (setting [5]), the “reduction of total diameter of target lesions” value is listed as 26% and the “reduction of tumor diameter on the right facial target lesion” value is recorded as 70%. In assay [3] (after 1 cycle of treatment), the “reducing ACC tumor growth in a human clinical trial” value is on record as “surprisingly effective in reducing ACC tumor growth”. Further, the “inhibiting tumor growth in primary ACC xenografts” value in assay [4] is listed as “effective for inhibiting tumor growth; also recorded: surprisingly effective in inhibiting tumor”.
